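Dose response: 5 concentrations. Exposure: 48 h. Format: 96-well plates. Endpoint: linear interpolation; highest concentration if not reached. At the GI50, growth is halved.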 The source made the active and inactive calls. Rule as the data show it: active = GI50 up to about 1.1 µM and inactive = higher.

What all share (assay): NCI-60 cell line screen, 48 h
Assay [1] has as its system SNB-75.
Assay [2] has as its system NCI/ADR-RES.
Assay [3] relates to SW-620.
Assay [4] relates to RXF 393.
Assay [5] has as its system HL-60.
The subject of assay [6] is IGROV-1.
The test system of assay [7] is OVCAR-4.
For assay [8], the system named is SR.
Assay [9] relates to SF-539.
Assay [10] concerns CCRF-CEM.
Assay [11] relates to UACC-257.
In assay [12] the test system is HOP-92.
Assay [13] relates to NCI-H522.
Assay [14] concerns HCT-116.
Assay [15] deals with HCC 2998.
The subject of assay [16] is SNB-19.
In assay [17] the test system is NCI-H226.
In assay [18] the test system is SK-MEL-2.
In assay [19] the test system is KM12.
Assay [20] concerns OVCAR-3.

Consider `COc1cc(/C=N/n2c(-c3ccccc3)nn(C(C)=O)c2=O)cc(OC)c1OC`, for which the GI50 in assay [1] was 3010 nM (inactive); in assay [2] it was 1250 nM (inactive); in [3] it was 836 nM (active); in assay [4], 5260 nM (inactive); in assay [5], 745 nM (active); in assay [6], 2110 nM (inactive). Also, the GI50 is 9910 nM (inactive) in assay [7]; 87.5 nM (active) in assay [8]; 1660 nM (inactive) in assay [9]; 2230 nM (inactive) in assay [10]; 3240 nM (inactive) in assay [11]; > 33900 nM (inactive) in assay [12]. For the same compound, the GI50 in assay [13] is 818 nM (active); in assay [14], 927 nM (active); in assay [15], 748 nM (active); in [16], 2560 nM (inactive); in [17] it was 18500 nM (inactive); in [18], 1720 nM (inactive). The GI50 in [19] was 521 nM (active); in assay [20], 690 nM (active).
In the case of `CC[C@H](C)[C@H]1NC(=O)[C@@H](NC(=O)[C@@H](CC(C)C)N(C)CC2CCCN2C(=O)C(C)=O)[C@@H](C)OC(=O)[C@H](Cc2ccc(OC)cc2)N(C)C(=O)C2CCCN2C(=O)[C@H](CC(C)C)NC(=O)[C@@H](C)C(=O)[C@H](C(C)C)OC(=O)C[C@@H]1O` (stereo not given in full), the GI50 was 3.17 nM (active) in assay [1]; 17.9 nM (active) in assay [2]; 4.09 nM (active) in [3]; < 2.5 nM (active) in assay [4]; 4.76 nM (active) in [5]; < 2.5 nM (active) in assay [6]. Also, the GI50 in assay [7] is < 2.5 nM (active); in assay [8], 2.51 nM (active); in assay [9] it was < 2.5 nM (active); in [10], < 2.5 nM (active); in assay [11] it was 4.43 nM (active); in [12], 4.03 nM (active). Besides, the GI50 in assay [13] is 5.64 nM (active); in assay [14], 3.08 nM (active); in [15] it was 4.48 nM (active); in assay [16], 3.56 nM (active); in assay [17], 15.2 nM (active); in assay [18], 3.51 nM (active). Moreover, the GI50 in assay [19] was 3.02 nM (active); in [20], 3.24 nM (active).
Take `C[C@]12CCC(=O)C=C1CC[C@@H]1[C@@H]2[C@@H](O)C[C@@]2(C)[C@H]1CC[C@]2(O)C(=O)CO` [HYDROCORTISONE]: the GI50 in assay [1], in assay [2], in [3], in [4], in assay [5] and in assay [6] was > 100000 nM (inactive) throughout. Further, the GI50 in assay [7] was > 100000 nM (inactive); in [8], > 100000 nM (inactive); in [9] it was > 100000 nM (inactive); in assay [10], 18700 nM (inactive); in assay [11], > 100000 nM (inactive); in assay [12] it was > 100000 nM (inactive). For the same compound, the GI50 in assay [13], in assay [14], in assay [15], in assay [16], in assay [17] and in [18] was > 100000 nM (inactive) in each case. Further, the GI50 in [19] and in [20] was > 100000 nM (inactive) throughout.
Consider `C=C(C)[C@H]1Cc2c(ccc3c2O[C@@H]2COc4cc(OC)c(OC)cc4[C@@H]2C3=O)O1` [ROTENONE], for which the GI50 in assay [1] is 152 nM (active); in assay [2], 63.5 nM (active); in assay [3], 131 nM (active); in [4], 83.6 nM (active); in assay [5], 61.1 nM (active); in assay [6], 126 nM (active). Also, the GI50 in [7] was 577 nM (active); in assay [8], 617 nM (active); in [9] it was 128 nM (active); in assay [10] it was 951 nM (active); in assay [11] it was 51.6 nM (active); in [12], 116 nM (active). Further, the GI50 in assay [13] is 24.7 nM (active); in assay [14], 61.8 nM (active); in assay [15], 316 nM (active); in assay [16] it was 327 nM (active); in assay [17], 177 nM (active); in assay [18] it was 171 nM (active). In addition, the figures for the GI50 in assay [19] and in assay [20] were 89.7 nM (active) and 56.6 nM (active), respectively.

(Values after ChEMBL document CHEMBL1201862, “PubChem BioAssay data set” (2004).)
